Reference: patent publication US12729377B2, “RNAi agents and compositions for inhibiting expression of angiopoietin-like 3 (ANGPTL3), and methods of use” (Arrowhead Pharmaceuticals, Inc., priority 2017, dated 2026)
“And” between values parts separate entries of the source, which are not always exact repeats. Equal values may be shown once. In the oligonucleotide strings, read from the 5' end, every base follows the letter of its sugar. An asterisk marks phosphorothioate; unmarked linkages are phosphodiester. Other units and linkages are bracketed, terminal groups are in braces. A string of capitals states the bases alone. {NAG37} = tridentate N-acetyl-galactosamine targeting ligand, structure (NAG37)s; [invAb] = inverted abasic unit; m = 2'-O-methyl; f = 2'-fluoro

Tests used:
[1] = test system: ANGPTL3 protein; assay: Example 2: serum ANGPTL3 protein by ELISA in mice; type: in vivo, C57bl/6 mice; conditions: for Avg ANGPTL3 (Average ANGPTL3 Protein Normalized to Pre-Treatment and Control): 3.0 mg/kg single subcutaneous dose on day 1, serum, female C57bl/6 mice
Method: (§1) To assess the in vivo activity of ANGPTL3 RNAi agents that are designed to target different positions on the ANGPTL3 gene, six- to eight-week-old female C57bl/6 mice were used. Pre-dose serum samples were taken at day −1 after a four hour fast. At day 1, each mouse was given a single subcutaneous administration of 200 μl containing either 3 mg/kg (mpk) of an ANGPTL3 RNAi agent in D5W (dextrose in 5% water), or control (D5W) with no RNAi agent, according to the dosing groups recited in Table 7.
(§2) Each of the RNAi agents included a modified sequence and an N-acetyl-galactosamine-containing targeting ligand conjugated to the 5′ terminal end of the sense strand. (See Tables 3, 4, and 5 for modified sequences and targeting ligand structures). The injections were performed between the skin and muscle (i.e. subcutaneous injections) into the loose skin over the neck and shoulder area. Three (3) mice in each group were tested (n=3). Serum was collected on days 8, […], 22, 29, and day 36 (for Groups 1 and 5-11 only). Mice were fasted for four hours prior to each collection. ANGPTL3 protein levels in serum were measured by ELISA assay (R&D Systems), according to the manufacturer's recommendations. Triglycerides, high-density lipoprotein (HDL), and total cholesterol in serum were measured on a Cobas® Integra 400 (Roche Diagnostics), according to the manufacturer's recommendations.
(§3) The ANGPTL3 protein levels, triglyceride levels, HDL levels, and total cholesterol levels for each animal were normalized. For normalization, the level of ANGPTL3 protein, triglyceride, HDL, and total cholesterol, respectively, for each animal at a time point, was divided by the pre-treatment level of expression in that animal (in this case at day −1) to determine the ratio of expression “normalized to pre-treatment.” Expression at a specific time point was then normalized to the D5W control group by dividing the “normalized to pre-treatment” ratio for an individual animal by the mean “normalized to pretreatment” ratio of all mice in the D5W control group.

[2] = test system: ANGPTL3 gene; assay: Example 2: serum triglycerides in mice; type: in vivo
Method: as §1, §2, §3

[3] = test system: ANGPTL3 protein; assay: Example 5: serum ANGPTL3 protein by ELISA in cynomolgus monkeys; type: in vivo, cynomolgus macaque (Macaca fascicularis); conditions: for Avg ANGPTL3 protein normalized to pre-treatment, individual animal / Avg ANGPTL3 protein normalized to pre-treatment, by group: 3.0 mg/kg single SC injection on day 1, serum; for Avg ANGPTL3 protein normalized to pre-treatment, by group: group average n=2; for reduction in ANGPTL3 protein compared to pre-treatment: all measured time points
Method: ANGPTL3 RNAi agents were evaluated in cynomolgus monkeys. On day 1, cynomolgus macaque (Macaca fascicularis) primates (also referred to herein as “cynos”) were administered a single subcutaneous injection of 0.3 mL/kg (approximately 2-3 mL volume, depending on animal mass) containing 3.0 mg/kg of ANGPTL3 RNAi agent AD05308 or AD05418, formulated in saline.
Two (2) cynos in each group were tested (n=2). Blood samples were drawn and serum samples were analyzed on days −37 (pre-dose), −15 (pre-dose), and −1 (pre-dose), 8, 16, 23, 30, and 37. Cynos were fasted overnight prior to each collection. ANGPTL3 protein levels in serum were measured by ELISA assay (R&D Systems), according to the manufacturer's recommendations. The ANGPTL3 protein levels were normalized. For normalization, the level of ANGPTL3 protein for each animal at a time point, was divided by the average pre-treatment level of expression in that animal (in this case at days −37, −15, and −1) to determine the ratio of expression “normalized to pre-treatment.”

[4] = test system: ANGPTL3 gene; assay: Example 8: serum LDL in cynomolgus monkeys; type: in vivo, cynomolgus macaque (Macaca fascicularis); conditions: 3.0 mg/kg single SC injection day 1, cynos, n=2
Method: (§4) Additional ANGPTL3 RNAi agents were evaluated in cynomolgus monkeys. On day 1, cynomolgus macaque (Macaca fascicularis) primates (also referred to herein as “cynos”) were administered a single subcutaneous injection of 0.3 mL/kg (approximately 1-2 mL volume, depending on animal mass) containing 3.0 mg/kg of one of ANGPTL3 RNAi agent AD05577, AD05307, AD05488, AD05654, or AD05659, each formulated in saline.
(§5) Two (2) cynos in each group were tested (n=2). Blood samples were drawn and serum samples were analyzed on days −8 (pre-dose), 1 (pre-dose), 8, 15, 22, 29, and 36. Cynos were fasted overnight prior to each collection. ANGPTL3 protein levels in serum were measured by ELISA assay (R&D Systems), according to the manufacturer's recommendations. Triglycerides, total cholesterol, high-density lipoprotein (HDL), and low-density lipoprotein (LDL) in serum were measured on a Cobas® Integra 400 (Roche Diagnostics), according to the manufacturer's recommendations.
(§6) The ANGPTL3 protein levels, triglyceride levels, total cholesterol levels, HDL levels, and LDL levels for each animal were normalized. For normalization, the level of ANGPTL3 protein, triglyceride, HDL, and total cholesterol, respectively, for each animal at a time point, was divided by the average pre-treatment level of expression in that animal (in this case at days −8, and 1 (pre-dose)) to determine the ratio of expression “normalized to pre-treatment.”

[5] = test system: ANGPTL3 protein; assay: Example 8: serum ANGPTL3 protein by ELISA in cynomolgus monkeys; type: in vivo, cynomolgus macaque (Macaca fascicularis); conditions: for Avg ANGPTL3 protein normalized to pre-treatment: 3.0 mg/kg single SC injection day 1, cynos, n=2
Method: as §4, §5, §6

[6] = day 29, single 3 mg/kg subcutaneous, C57bl/6 mice
[7] = single 3.0 mg/kg subcutaneous, cynomolgus monkeys
[8] = Day 16, single 3.0 mg/kg subcutaneous, cynomolgus monkeys, 3 mg/kg
[9] = day 37, single 3.0 mg/kg subcutaneous, cynomolgus monkeys

Substance | Avg ANGPTL3 protein normalized to pre-treatment, individual animal ([3]; Day 8, Cyno A) | Avg ANGPTL3 protein normalized to pre-treatment, individual animal ([3]; Day 8, Cyno B) | Avg ANGPTL3 protein normalized to pre-treatment, by group ([3]; Day 8) | Avg ANGPTL3 protein normalized to pre-treatment, individual animal ([3]; Day 16, Cyno A) | Avg ANGPTL3 protein normalized to pre-treatment, individual animal ([3]; Day 16, Cyno B) | Avg ANGPTL3 protein normalized to pre-treatment, by group ([3]; Day 16) | Avg ANGPTL3 protein normalized to pre-treatment, individual animal ([3]; Day 23, Cyno A) | Avg ANGPTL3 protein normalized to pre-treatment, individual animal ([3]; Day 23, Cyno B) | Avg ANGPTL3 protein normalized to pre-treatment, by group ([3]; Day 23) | Avg ANGPTL3 protein normalized to pre-treatment, individual animal ([3]; Day 30, Cyno A) | Avg ANGPTL3 protein normalized to pre-treatment, individual animal ([3]; Day 30, Cyno B) | Avg ANGPTL3 protein normalized to pre-treatment, by group ([3]; Day 30) | Avg ANGPTL3 protein normalized to pre-treatment, individual animal ([3]; Day 37, Cyno A) | Avg ANGPTL3 protein normalized to pre-treatment, individual animal ([3]; Day 37, Cyno B) | Avg ANGPTL3 protein normalized to pre-treatment, by group ([3]; Day 37) | reduction in ANGPTL3 protein compared to pre-treatment [3, 7] | also measured
AD05308: RNAi agent duplex: antisense AM07003-AS, sense AM07002-SS (chain 1 mU*fG*mU*fUmGfAmAfUmUfAmAfUmGfUmCfCmAfUmGfG*mA; chain 2 {NAG37}*[invAb]*mUmCmCmAmUmGmGmAfCfAfUmUmAmAmUmUmCmAmAmCmA*[invAb]) | 0.545 | 0.287 | 0.416 | 0.423 | 0.471 | 0.447 | 0.832 | 0.465 | 0.649 | 0.722 | 0.572 | 0.647 | 0.709 | 0.421 | 0.565 | reduction | Avg ANGPTL3 (Average ANGPTL3 Protein Normalized to Pre-Treatment and Control) ([1]; Day 8): 0.106; Avg ANGPTL3 (Average ANGPTL3 Protein Normalized to Pre-Treatment and Control) ([1]; Day 13): 0.076; Avg ANGPTL3 (Average ANGPTL3 Protein Normalized to Pre-Treatment and Control) ([1]; Day 22): 0.084; Avg ANGPTL3 (Average ANGPTL3 Protein Normalized to Pre-Treatment and Control) ([1]; Day 29): 0.088; Avg ANGPTL3 (Average ANGPTL3 Protein Normalized to Pre-Treatment and Control) ([1]; Day 36): 0.167; ANGPTL3 protein normalized to pre-treatment and control [1, 6]: 0.088; reduction in ANGPTL3 protein compared to control [1, 6]: approximately 91%; Avg TG (Average Triglycerides Normalized to Pre-Treatment and Control) ([2]; Day 8, 3.0 mg/kg single subcutaneous dose on day 1, female C57bl/6 mice): 0.375; Avg TG (Average Triglycerides Normalized to Pre-Treatment and Control) ([2]; Day 13, 3.0 mg/kg single subcutaneous dose on day 1, female C57bl/6 mice): 0.554; Avg TG (Average Triglycerides Normalized to Pre-Treatment and Control) ([2]; Day 22, 3.0 mg/kg single subcutaneous dose on day 1, female C57bl/6 mice): 0.399; Avg TG (Average Triglycerides Normalized to Pre-Treatment and Control) ([2]; Day 29, 3.0 mg/kg single subcutaneous dose on day 1, female C57bl/6 mice): 0.473; Avg TG (Average Triglycerides Normalized to Pre-Treatment and Control) ([2]; Day 36, 3.0 mg/kg single subcutaneous dose on day 1, female C57bl/6 mice): 0.430
AD05488: RNAi agent duplex: antisense AM07235-AS, sense AM07234-SS (antisense mU*fA*mC*fUmGfAmUfCmAfAmAfUmAfUmGfUmUfGmAfG*mC; sense {NAG37}*[invAb]*mGmCmUmCmAmAmCmAfUfAfUmUmUmGmAmUmCmAmGmUmA*[invAb]) | – | – | – | – | – | – | – | – | – | – | – | – | – | – | – | – | Average LDL Normalized to Pre-Treatment ([4]; Day 8): 0.934; Average LDL Normalized to Pre-Treatment ([4]; Day 15): 0.926; Average LDL Normalized to Pre-Treatment ([4]; Day 22): 0.891; Average LDL Normalized to Pre-Treatment ([4]; Day 29): 0.872; Average LDL Normalized to Pre-Treatment ([4]; Day 36): 0.805; Avg ANGPTL3 protein normalized to pre-treatment ([5]; Day 8): 0.423; Avg ANGPTL3 protein normalized to pre-treatment ([5]; Day 15): 0.334; Avg ANGPTL3 protein normalized to pre-treatment ([5]; Day 22): 0.343; Avg ANGPTL3 protein normalized to pre-treatment ([5]; Day 29): 0.276; Avg ANGPTL3 protein normalized to pre-treatment ([5]; Day 36): 0.229; reduction in ANGPTL3 protein compared to pre-treatment ([5]; all measured time points, single 3.0 mg/kg subcutaneous, cynomolgus monkeys): reduction
AD05418: RNAi agent duplex: antisense AM07159-AS, sense AM07158-SS (antisense mU*fU*mU*fGmAfAmUfUmAfAmUfGmUfCmCfAmUfGmGfG*mU; sense {NAG37}*[invAb]*mAmCmCmCmAmUmGmGfAfCfAmUmUmAmAmUmUmCmAmAmA*[invAb]) | 0.585 | 0.503 | 0.544 | 0.358 | 0.309 | 0.334 | 0.260 | 0.340 | 0.300 | 0.311 | 0.467 | 0.389 | 0.212 | 0.328 | 0.270 | reduction | normalized ANGPTL3 protein level, individual animals [3, 8]: 0.358 and 0.309; reduction in ANGPTL3 protein, individual animals [3, 8]: approximately 64% and ~69%; average ANGPTL3 protein normalized to pre-treatment [3, 9]: 0.270; average reduction in ANGPTL protein levels [3, 9]: approximately 73%
